Data: US5332726A, “Antithrombotic peptides and pseudopeptides” (Rhone-Poulenc Rorer Pharmaceuticals Inc., priority 1992, dated 1994)
Non-standard residues stand in square brackets, D forms with d. Residues, ends and D or L forms follow the SMILES beside them. Aun = NCCCCCCCCCCC(=O)O; Ava = NCCCCC(=O)O

Experiments:
[1] = molecular target: thrombin-stimulated platelets (Homo sapiens, UniProt P05106+P08514); experiment: Fibrinogen-Binding Assay (125I-fibrinogen binding to platelets); conditions: for IC50: 125I-fibrinogen 0.176 μmol/liter, thrombin-stimulated platelets, read-out: Inhibition of 125I-Fibrinogen Binding to Platelets IC50
Procedure: Platelets are washed free of plasma constituents by the albumin density-gradient technique of Walsh, P. N., et al., Br. J. Haematol. […] After these additions, the final platelet count in the mixture is 1×10^11 /liter. After incubation for an additional 30 minutes at 22°-25° C., bound and free ligand are separated by centrifuging 50 μl of the mixture through 300 μl of 20% sucrose at 12,000×g for 4 minutes. The platelet pellet is then separated from the rest of the mixture to determine platelet-bound radioactivity. Nonspecific binding is measured in mixtures containing an excess of unlabeled ligand. […] The IC50 is derived by plotting residual fibrinogen binding against the logarithm of the sample compound's concentration.

[2] = molecular target: fixed activated platelets (Homo sapiens, UniProt P05106+P08514); experiment: Platelet Aggregation Assay (fibrinogen-mediated aggregation of fixed-activated platelets); format: cell-based; conditions: for IC50: fixed activated platelets, human fibrinogen 250 μg/ml, read-out: Inhibition of Fibrinogen Mediated Platelet Aggregation IC50; for inhibition at 100 µM: read-out: Inhibition of Fibrinogen Mediated Platelet Aggregation % inhibition at 100 μM; for inhibition at 25 µM: read-out: Inhibition of Fibrinogen Mediated Platelet Aggregation % inhibition at 25 μM
Procedure: PLATELET AGGREGATION ASSAY
Preparation of Fixed-Activated Platelets
To the activated platelets is added paraformaldehyde to a final concentration of 0.50% and this incubated at room temperature for 30 minutes. The fixed activated platelets are then collected by centrifugation at 650×g for 15 minutes.
Platelet Aggregation Assay
The fixed activated platelets are incubated with a selected dose of the compound to be tested for platelet aggregation inhibition for one minute and aggregation initiated by addition of human fibrinogen to a final concentration of 250 μg/ml. A platelet aggregation profiler Model PAP-4 is used to record the platelet aggregation.

thrombin-stimulated platelets, sequence (P08514 32-1039): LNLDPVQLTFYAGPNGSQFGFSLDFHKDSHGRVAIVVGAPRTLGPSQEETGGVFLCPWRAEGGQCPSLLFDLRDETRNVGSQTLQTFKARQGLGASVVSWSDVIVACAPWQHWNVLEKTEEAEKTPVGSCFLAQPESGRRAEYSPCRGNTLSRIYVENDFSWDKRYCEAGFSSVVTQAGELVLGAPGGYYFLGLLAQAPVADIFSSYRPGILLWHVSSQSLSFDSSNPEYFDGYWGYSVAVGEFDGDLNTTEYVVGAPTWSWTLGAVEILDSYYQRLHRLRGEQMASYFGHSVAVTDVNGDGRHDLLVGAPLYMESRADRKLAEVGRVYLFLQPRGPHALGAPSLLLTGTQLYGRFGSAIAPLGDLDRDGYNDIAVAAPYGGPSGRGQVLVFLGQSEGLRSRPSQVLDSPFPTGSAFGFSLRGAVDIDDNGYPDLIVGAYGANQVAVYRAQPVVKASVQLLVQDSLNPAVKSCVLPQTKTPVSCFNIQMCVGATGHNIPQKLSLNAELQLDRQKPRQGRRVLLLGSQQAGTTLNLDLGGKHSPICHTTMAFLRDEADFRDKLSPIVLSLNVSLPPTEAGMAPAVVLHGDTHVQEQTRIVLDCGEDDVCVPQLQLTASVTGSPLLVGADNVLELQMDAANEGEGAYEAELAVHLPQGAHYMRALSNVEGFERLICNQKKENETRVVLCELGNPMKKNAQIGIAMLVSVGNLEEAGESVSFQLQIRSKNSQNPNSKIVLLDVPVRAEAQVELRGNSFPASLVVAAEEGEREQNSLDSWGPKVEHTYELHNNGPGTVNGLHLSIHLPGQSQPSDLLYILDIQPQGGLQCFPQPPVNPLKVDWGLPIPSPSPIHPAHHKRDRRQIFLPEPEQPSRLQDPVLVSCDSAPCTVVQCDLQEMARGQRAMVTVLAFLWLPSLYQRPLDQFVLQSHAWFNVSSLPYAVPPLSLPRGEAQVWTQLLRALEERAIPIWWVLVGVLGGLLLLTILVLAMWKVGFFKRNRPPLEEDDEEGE
thrombin-stimulated platelets, sequence (P05106 27-788): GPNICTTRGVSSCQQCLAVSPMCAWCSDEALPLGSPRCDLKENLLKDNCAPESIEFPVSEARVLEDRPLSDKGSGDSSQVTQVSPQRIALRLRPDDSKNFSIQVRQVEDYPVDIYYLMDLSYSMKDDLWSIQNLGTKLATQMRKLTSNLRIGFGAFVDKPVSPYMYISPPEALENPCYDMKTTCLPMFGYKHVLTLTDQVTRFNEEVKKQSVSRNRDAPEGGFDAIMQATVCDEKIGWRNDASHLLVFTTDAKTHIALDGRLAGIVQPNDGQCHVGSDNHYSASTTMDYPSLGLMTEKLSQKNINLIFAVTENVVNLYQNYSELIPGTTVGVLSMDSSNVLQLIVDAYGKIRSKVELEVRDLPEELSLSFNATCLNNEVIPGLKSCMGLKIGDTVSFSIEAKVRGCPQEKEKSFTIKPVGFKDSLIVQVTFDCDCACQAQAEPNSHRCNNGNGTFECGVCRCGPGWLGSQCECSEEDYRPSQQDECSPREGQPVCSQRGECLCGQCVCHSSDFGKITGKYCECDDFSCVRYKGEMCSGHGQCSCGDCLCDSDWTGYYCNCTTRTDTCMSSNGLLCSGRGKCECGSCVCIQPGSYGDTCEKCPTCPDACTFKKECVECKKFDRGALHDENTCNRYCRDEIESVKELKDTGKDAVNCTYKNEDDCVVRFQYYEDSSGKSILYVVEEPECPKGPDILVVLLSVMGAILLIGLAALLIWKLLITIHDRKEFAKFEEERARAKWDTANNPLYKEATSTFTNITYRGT
fixed activated platelets, sequence (P08514 32-1039): as the sequence (P08514 32-1039) above
fixed activated platelets, sequence (P05106 27-788): as the sequence (P05106 27-788) above

Row | Structure (SMILES) | inhibition at 50 µg/mL ([1]; read-out: Inhibition of 125I-Fibrinogen Binding to Platelets: Inhibited <50% at 50 μg/ml) | IC50 [2] | inhibition at 100 µM [2] | IC50 [1] | inhibition at 25 µM [2]
1 | CC(C)[C@H](NC(=O)[C@H](C)NC(=O)CNC(=O)[C@@H](N)CCCNC(=N)N)C(=O)O [L-arginylglycyl-L-alanyl-L-valine] (H-RGAV-OH) | < 50% | > 100000 nM | 17.5% | – | –
2 | CCC(CCCCCCNC(=N)N)C(=O)NC(CC(=O)O)C(=O)N[C@H](C(=O)O)C(C)C (mixture of isomers) [8-Guanidino-2-(R,S)-ethyl-octanoyl-L-aspartyl-L-valine] | – | – | – | > 200000 nM | 30%
3 | CC(C)[C@H](NC(=O)[C@H](CC(=O)O)NC(=O)CCCCCCCCCCCNC(=N)N)C(=O)O [12-Guanidinododecanoyl-L-aspartyl-L-valine] | – | – | – | 7000 nM | 36%
4 | N=C(N)NCCCCCC=CC(=O)N[C@@H](CC(=O)O)C(=O)N[C@@H](CCCNC(=N)N)C(=O)O [8-Guanidinooct-2-enoyl-L-aspartyl-L-arginine] | – | 630 nM | – | 580 nM | 90%
5 | CCN(CC(=O)N[C@@H](CC(=O)O)C(=O)N[C@@H](CCCNC(=N)N)C(=O)O)C(=O)CCCCNC(=N)N [5-guanidino-N-(ethyl)-glycyl-L-aspartyl-L-arginine] | – | 230 nM | – | 1900 nM | 93%
6 | CC(C)CNC(=O)[C@H](CC(=O)O)NC(=O)CCCCCCCNC(=N)N [8-Guanidinooctanoyl-L-aspartic acid-α-isobutylamide] | – | 7800 nM | – | 14500 nM | 81%
7 | CCN(CC(=O)N[C@@H](CC(=O)O)C(=O)N[C@H](C(=O)O)C(C)C)C(=O)CCCCCn1ccnc1 [6-(Imidazol-1-yl)-hexanoyl-N-ethylglycyl-L-aspartyl-L-valine] | – | 1000 nM | – | 900 nM | 95%
8 | N=C(N)NCCCCCCCC(=O)N[C@@H](CC(=O)O)C(=O)N[C@@H](CCCNC(=N)N)C(=O)O [8-Guanidinooctanoyl-L-aspartyl-arginine] | – | 2200 nM | – | 330 nM | 94%
9 | CC(C)[C@H](NC(=O)[C@H](CC(=O)O)NC(=O)CCCCCCCCn1ccnc1)C(=O)O [9-(Imidazol-1-yl)-nonanoyl-L-aspartyl-L-valine] | – | 3400 nM | – | 500 nM | 96%
10 | CC(C)[C@H](NC(=O)[C@H](CC(=O)O)NC(=O)CNC(=O)CCCCCn1ccnc1)C(=O)O [6-(Imidazol-1-yl)-hexanoyl-glycyl-L-aspartyl L-valine] | – | 17000 nM | – | 2800 nM | 67%
11 | N=C(N)NCCCCC(=O)NCC(=O)N[C@@H](CC(=O)O)C(=O)N1CCc2ccccc2C1 [2-[N-(5-guanidinopentanoyl)glycyl-L-aspartyl]-1,2,3,4-tetrahydroisoquinoline] | – | 20400 nM | 48% | 130000 nM | –
12 | CC(C)[C@H](NC(=O)[C@H](CC(=O)O)NC(=O)CNC(=O)CCCCN)C(=O)O [N-(5-Aminopentanoyl) glycyl-L-aspartyl-L-valine] (H-[Ava]GDV-OH) | – | > 64000 nM | 67% | 68500 nM | –
13 | N=C(N)NCCCCCCCC(=O)N[C@@H](CC(=O)O)C(=O)N[C@@H](Cc1ccccc1)C(=O)O [8-Guanidinooctanoyl-L-aspartyl-L-phenyl-alanine] | – | 690 nM | – | 200 nM | 96%
14 | CC(C)[C@H](NC(=O)[C@H](CC(=O)O)NC(=O)CCCCCCCCCCN)C(=O)O [11-Aminoundecanoyl-L-aspartyl-L-valine] (H-[Aun]-Asp-Val-OH) | – | 1700 nM | – | 580 nM | 0.98%
15 | CC(C)[C@H](NC(=O)[C@H](CC(=O)O)NC(=O)CN(C(=O)CCCCCNC(=N)N)C(C)C)C(=O)O [6-Guanidinohexanoyl-N-(2-propyl)glycyl-L-aspartyl-L-valine] | – | 8600 nM | – | 1100 nM | 83%
16 | CC(C)[C@H](NC(=O)[C@H](CC(=O)O)NC(=O)[C@@H](N)CCCNC(=N)N)C(=O)O [L-arginyl-L-aspartyl-L-valine] (H-Arg-Asp-Val-OH) | – | 100000 nM | 49% | > 200000 nM | –
17 | CCN(CC(=O)N[C@@H](CC(=O)O)C(=O)N[C@@H](CC(C)C)C(=O)O)C(=O)CCCCNC(=N)N [5-guanidinopentanoyl-N-(ethyl)-glycyl-L-aspartyl-L-leucine] | – | 540 nM | – | 390 nM | 90%

Row | Structure (SMILES) | inhibition at 50 µg/mL ([1]; read-out: Inhibition of 125I-Fibrinogen Binding to Platelets: Inhibited <50% at 50 μg/ml) | IC50 [2] | inhibition at 100 µM [2] | IC50 [1] | inhibition at 25 µM [2]
18 | N=C(N)NCCC[C@H](N)C(=O)NCC(=O)N[C@@H](CC(=O)O)C(=O)OCc1ccccc1 [L-arginylglycyl-L-aspartic acid α-benzyl ester] | – | 14000 nM | 96% | 25000 nM | –
19 | CC(C)[C@H](NC(=O)[C@H](CC(=O)O)NC(=O)CNC(=O)CCCCn1ccnc1)C(=O)O [5-(Imidazol-1-yl)-valeroylglycyl-L-aspartyl-L-valine] | – | 20200 nM | – | 1250 nM | 58%
20 | N=C(N)NCCCCCCCCC(=O)N[C@@H](CC(=O)O)C(=O)NCCCCNC(=N)N [9-Guanidinononanoyl-L-aspartyl-(des-carboxy)-L-arginine] | – | 4400 nM | – | 520 nM | 84%
21 | CCN(CC(=O)N[C@@H](CC(=O)O)C(=O)N[C@H](C(=O)O)C(C)C)C(=O)CCCCNC(=N)N [5-Guanidinopentanoyl-N-ethylglycyl-L-aspartyl-L-valine] | – | 630 nM | – | 40 nM | 91%
22 | CCN(CC(=O)N[C@@H](CC(=O)O)C(=O)N[C@@H](CCCNC(=N)N)C(=O)O)C(=O)CCCCCNC(=N)N [6-Guanidinohexanoyl-N-ethylglycyl-L-aspartyl-L-arginine] | – | 1400 nM | – | 240 nM | 97%
23 | CCN(CC(=O)N[C@@H](CC(=O)O)C(=O)N[C@H](C(=O)O)C(C)C)C(=O)CCCCCn1ccnc1C [6-(2-Methylimidazol-1-yl)hexanoyl-N-(ethyl)-glycyl-L-aspartyl-L-valine] | – | 1900 nM | – | 350 nM | 93%
24 | CCN(CC(=O)N[C@@H](CC(=O)O)C(=O)N[C@H](C(=O)O)C(C)C)C(=O)CCCNC(=N)N [4-Guanidinobutanoyl-N-(ethyl)glycyl-L-aspartyl-L-valine] | – | 2700 nM | – | 450 nM | 94%
25 | CN(CC(=O)N[C@@H](CC(=O)O)C(=O)N[C@@H](CCCNC(=N)N)C(=O)O)C(=O)CCCCCNC(=N)N [6-Guanidinohexanoyl-sarcosyl-L-aspartyl-L-arginine] | – | 2100 nM | – | 520 nM | 97%
26 | CC(C)[C@H](NC(=O)[C@H](CC(=O)O)NC(=O)CCCCCCCCCNC(=N)N)C(=O)O [10-Guanidinodecanoyl-L-aspartyl-L-valine] | – | 10300 nM | – | 2500 nM | 77%
27 | CC(C)[C@H](NC(=O)[C@H](CC(=O)O)NC(=O)CN(Cc1ccccc1)C(=O)CCCCCNC(=N)N)C(=O)O [6-Guanidinohexanoyl-N-benzylglycyl-L-aspartyl-L-valine] | – | 5700 nM | – | 840 nM | 85%
28 | CC(C)C[C@@H](CCC(=O)O)NC(=O)[C@H](CC(=O)O)NC(=O)CCCCCCCCNC(=N)N [N-(9-guanidinononanoyl-L-aspartyl)-(R)-4-amino-4-isobutylbutyric acid] | – | > 25000 nM | – | 54000 nM | 13%
29 | N=C(N)NCCCCCCCCC(=O)N[C@@H](CC(=O)O)C(=O)NCC(=O)N[C@@H](CCCNC(=N)N)C(=O)O [9-Guanidinononanoyl-L-aspartyl-glycyl-L-arginine] | – | 2200 nM | – | 7000 nM | 85%
30 | CC(C)CN(CC(=O)N[C@@H](CC(=O)O)C(=O)N[C@H](C(=O)O)C(C)C)C(=O)CCCCCNC(=N)N [6-Guanidinohexanoyl-N-isobutylglycyl-L-aspartyl-L-valine] | – | 1500 nM | – | 100 nM | 86%
31 | CC(C)CNC(=O)[C@H](CC(=O)O)NC(=O)CNC(=O)[C@@H](N)CCCNC(=N)N [L-arginylglycyl-L-aspartyl-α-isobutylamide] | – | 3600 nM | 89% | 26500 nM | –
32 | CN(CC(=O)N[C@@H](CC(=O)O)C(=O)N[C@@H](Cc1c[nH]c2ccccc12)C(=O)O)C(=O)CCCCCNC(=N)N [6-Guanidinohexanoyl-sarcosyl-L-aspartyl-L-tryptophan] | – | 6600 nM | – | 190 nM | 89%
33 | N=C(N)NCCCCCCCCC(=O)N[C@@H](CC(=O)O)C(=O)N[C@@H](CCCNC(=N)N)C(=O)O [9-Guanidinononanoyl-L-aspartyl-L-arginine] | – | 260 nM | – | 130 nM | 97%
34 | CC(C)C[C@H](NC(=O)[C@H](CC(=O)O)NC(=O)CN(C)C(=O)CCCCCNC(=N)N)C(=O)O [6-Guanidinohexanoyl-L-sarcosyl-L-aspartyl-L-leucine] | – | 330 nM | – | 90 nM | 88%
